In article PMC9570041, “Synthesis of Novel α-Trifluoroanisole Derivatives Containing Phenylpyridine Moieties with Herbicidal Activity” (International Journal of Molecular Sciences, 2022):
Like-named read-outs stand apart in the source and are kept apart here.

Target: T1, Nicotiana tabacum protoporphyrinogen oxidase (NtPPO) (Nicotiana tabacum, UniProt O24164)
T1 construct: gene PPXII
T1 sequence (O24164 1-504): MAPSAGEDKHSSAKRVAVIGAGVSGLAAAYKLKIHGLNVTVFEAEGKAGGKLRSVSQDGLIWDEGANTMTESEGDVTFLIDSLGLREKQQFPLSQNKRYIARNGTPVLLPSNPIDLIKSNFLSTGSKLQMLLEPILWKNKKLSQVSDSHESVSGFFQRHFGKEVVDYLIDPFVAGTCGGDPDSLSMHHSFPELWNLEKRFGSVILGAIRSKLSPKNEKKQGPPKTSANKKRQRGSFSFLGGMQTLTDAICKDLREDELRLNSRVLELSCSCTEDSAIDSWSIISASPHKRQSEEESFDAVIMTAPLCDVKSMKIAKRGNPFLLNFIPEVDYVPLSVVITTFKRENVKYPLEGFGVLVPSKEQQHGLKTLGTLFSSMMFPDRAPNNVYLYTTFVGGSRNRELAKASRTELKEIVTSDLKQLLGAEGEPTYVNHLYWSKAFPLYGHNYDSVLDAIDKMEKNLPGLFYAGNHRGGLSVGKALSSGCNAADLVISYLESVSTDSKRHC
Test: NtPPO inhibition in vitro, protoporphyrin IX formation by absorbance at […] nm
Format: biochemical

Structure (SMILES)	IC50	IC50 (read-out: IC50)
FC(F)(F)Oc1ccc(COc2ccc(-c3ncc(C(F)(F)F)cc3Cl)cc2)cc1 [7a, 3-Chloro-2-(4-((4-(trifluoromethoxy)benzyl)oxy)phenyl)-5-(trifluoromethyl)pyridine]	9.4 ± 2.2 nM	
CS(=O)(=O)NC(=O)c1cc(Oc2ccc(C(F)(F)F)cc2Cl)ccc1[N+](=O)[O-] [fomesafen]		110 ± 1.2 nM
